Test results as given in patent US20220289794A1, “SYNTHETIC ANTIMICROBIAL PEPTIDES” (priority 2019, published 2022).

What was measured:
[1] = tested on: Streptococcus pneumoniae ATCC 49619; conditions: S. pneumoniae ATCC 49619
[2] = tested on: Methicillin-resistant Staphylococcus aureus MRSA (ATCC BAA-1556); conditions: MRSA ATCC BAA-1556
[3] = tested on: Klebsiella pneumoniae ATCC 13883; conditions: Table 16, Gram-negative panel
[4] = tested on: Enterococcus faecium ATCC 700221; conditions: E. faecium ATCC 700221
[5] = tested on: Enterococcus faecalis ATCC 29212; conditions: E. faecalis ATCC 29212
[6] = tested on: Streptococcus pneumoniae ATCC 51938; conditions: S. pneumoniae ATCC 51938
E. coli (ATCC BAA-2452) = assay: Broad-spectrum activity against Gram-Negative bacteria (MIC); type: cell-based; conditions: Table 16, Gram-negative panel
B. subtilis (ATCC-6633) = assay: Broad-spectrum activity against Gram-Positive bacteria (MIC); type: cell-based; set-up: unit not given here
[7] = tested on: P. aeruginosa (ATCC BAA-1744); assay: Broad-spectrum activity against Gram-Negative bacteria (MIC); type: cell-based; conditions: Table 16, Gram-negative panel
[8] = tested on: Enterococcus faecium ATCC 27270; conditions: E. faecium ATCC 27270
[9] = tested on: Pseudomonas aeruginosa (ATCC 27883); conditions: P. aeruginosa ATCC 27883
[10] = tested on: P. aeruginosa (ATCC 10145); assay: Broad-spectrum activity against Gram-Negative bacteria (MIC); type: cell-based; conditions: Table 16, Gram-negative panel
[11] = tested on: Escherichia coli (ATCC 25922); conditions: E. coli ATCC 25922
S. aureus ATCC 29213 = conditions: S. aureus ATCC 29213
[12] = tested on: Klebsiella pneumoniae (ATCC BAA-1705); conditions: Table 16, Gram-negative panel
[13] = tested on: Enterococcus faecalis ATCC 51575; conditions: E. faecalis ATCC 51575
[14] = tested on: A. baumannii (ATCC BAA-1605); assay: Broad-spectrum activity against Gram-Negative bacteria (MIC); type: cell-based; conditions: Table 16, Gram-negative panel
B. cereus (ATCC-13061) = assay: Broad-spectrum activity against Gram-Positive bacteria (MIC); type: cell-based; set-up: unit not given here

Substance	Broad-spectrum activity S. pneumoniae (ATCC 49619) [1]	MIC MRSA ATCC BAA-1556 [2] [µg/mL]	MIC K. pneumonia (ATCC 13883) [3] [µg/mL]	Broad-spectrum activity E. faecium (ATCC 700221) [4]	Broad-spectrum activity E. faecalis (ATCC 29212) [5]	Broad-spectrum activity S. pneumoniae (ATCC 51938) [6]	MIC E. coli (ATCC BAA-2452) (E. coli (ATCC BAA-2452)) [µg/mL]	Broad-spectrum activity B. subtilis (ATCC-6633) (B. subtilis (ATCC-6633))	MIC P. aeruginosa (ATCC BAA-1744) [7] [µg/mL]	Broad-spectrum activity E. faecium (ATCC 27270) [8]	MIC P. aeruginosa ATCC 27883 [9] [µg/mL]	MIC P. aeruginosa (ATCC 10145) [10] [µg/mL]	MIC E. coli ATCC 25922 [11] [µg/mL]	MIC S. aureus ATCC 29213 (S. aureus ATCC 29213) [µg/mL]	MIC K. pneumonia (ATCC BAA-1705) [12] [µg/mL]	Broad-spectrum activity E. faecalis (ATCC 51575) [13]	MIC A. baumannii (ATCC BAA-1605) [14] [µg/mL]	Broad-spectrum activity B. cereus (ATCC-13061) (B. cereus (ATCC-13061))
c[Arg-Arg-arg-arg-naI-trp-naI] [IFX-137]	25	3.1	50	3.1	6.2	12.5	25	1.5	25	3.1	32	25	16	3.1	50	6.2	12.5	3.1
c[arg-arg-Arg-Arg-NaI-trp-NaI] [IFX-140]	25	3.1	50	6.2	6.2	12.5	25	1.5	25	3.1	32	25	32	3.1	> 50	6.2	12.5	3.1
c[arg-Arg-Arg-Arg-Dip-Dip-Dip] [IFX-066]	25	1.5	50	3.1	6.2	12.5	12.5	1.5	12.5	3.1	12.5	25	12.5	3.1	12.5	12.5	6.2	6.2
c[Arg-Arg-arg-arg-NaI-trp-NaI] [IFX-139]	25	3.1	> 50	6.2	6.2	12.5	25	1.5	50	3.1	32	50	32	3.1	25	6.2	12.5	3.1
c[Arg-Arg-Arg-arg-Dip-Dip-Dip] [IFX-063]	25	3.1	50	1.5	6.2	12.5	12.5	1.5	25	3.1	12.5	25	12.5	3.1	12.5	12.5	6.2	3.1
